Test results: patent US12128035B2, “Activating pyruvate kinase R” (Novo Nordisk Health Care AG, priority 2021, dated 2024)
Values joined by “and” are separate entries in the source; they are usually repeats but may differ in a detail not shown here. Equal values may be shown once.

Key:
[1] = system: panels of receptors, enzymes, ion channels, and kinases; assay: Preclinical safety: arrhythmia risk, mutagenicity, nonspecific binding panels; conditions: in vitro panels
[2] = Phase 1: hematologic and hemolytic laboratory parameters in SCD patients; format: in vivo, human
Source text: Laboratory changes relative to pretreatment for each pt in the MD cohort as of Jul. In 2 of 3 SCD MD-1 pts treated with Compound 1/placebo (currently blinded), Hb increased by >1 g/dL, % reticulocytes decreased, and markers of hemolysis were improved after 14 days of treatment (compared to pre-treatment levels). Hematologic parameters returned to pre-treatment levels 4 to 7 days post-treatment (data not shown) without clinical AEs.
A median 1.2 g/dL Hb increase (range 0, 2.3) and a median 60% reticulocyte decrease (range −39%, −81%) over baseline were observed. The onset of the increase in Hb was rapid and continued to increase in most patients through the end of treatment, indicating the potential for additional improvement with extended dosing. […] A median 36% LDH decrease (range +18%, −57%) and a median 35% bilirubin decrease (range −7%, −63%) over baseline were observed, which is consistent with the hypothesis that Compound 1 improves RBC survival and reduces RBC turnover.

ATP blood levels = assay: Phase 1: blood ATP in SCD patients; format: in vivo, human
Description: In this study, SAD/MAD cohorts are randomized (3 to 1) to receive Compound 1 or placebo (P). Compound 1 was evaluated first in 4 healthy SAD cohorts and 4 healthy MAD (14-day dosing period) cohorts. Based on the safety, and PK/PD profile from HS, Compound 1 is then evaluated in 1 SCD SAD cohort and 2 SCD MAD cohorts. Specifically, based on the safety and pharmacokinetic/pharmacodynamics (PK/PD) profile in healthy volunteer studies, Compound 1 is evaluated in patients (pts) with SCD, first in a single dose (SD or SAD) cohort and then in multiple-dose (MD or MAD) cohorts (14-day and 12-week). Safety assessments include AEs, vital signs, ECGs and laboratory parameters. PK/PD blood sampling was performed on Day 1 (SAD/MAD) and Day 14 (MAD) and up to 72 h after the last dose and at the end-of-study visit. PD parameters included 2,3-DPG, ATP, and p50 in all cohorts with additional PD studies (including oxygen scan) performed only in the SCD cohorts. PD parameters included 2,3-DPG, ATP, p50, RBC deformability with controlled deoxygenation and reoxygenation (Lorrca® oxygen scan) and varying osmolality (Lorrca® osmoscan)). To maintain study blind, pt identifiers were removed when needed.
The onset of the increase in ATP blood levels after a single 700 mg dose of Compound 1 was faster in SCD patients than in healthy volunteers, while the onset of the decrease in 2,3-DPG blood levels was slower.
The following procedures are employed for the analysis of ATP and 2,3-DPG in human whole blood K2EDTA using a protein precipitation extraction procedure and analysis by LC-MS/MS.
The following procedures are used for sample extraction prior to analysis via LC-MS/MS. 15.0 μL of the calibration standards, quality controls, matrix blanks, and samples are aliquoted into a 96-well plate. 50.0 μL of the internal standard spiking solution is added to all samples on the plate, with the exception of the matrix blank samples; 50.0 μL of water is added to the matrix blank samples. Subsequently, 150 μL of water is added to all samples on the plate. The plate is then covered and agitated by vortex at high speed for ten minutes, after which 750 μL of methanol is added to all samples on the plate. The plate is covered and agitated by vortex for approximately 1 minute. The plate is then centrifuged at approximately 3500 RPM at approximately 4° C. for five minutes. After centrifugation, a liquid handler is used to transfer 50 μL of each sample to a new 96-well plate, and 200 μL of acetonitrile is added to all samples on the plate. The newly prepared plate is covered and agitated by vortex for approximately 1 minute. The plate is then centrifuged at approximately 3500 RPM at approximately 4° C. for 2 minutes.

[3] = SCD MAD1, 300 mg once daily 14 days, of 7 patients

O=C([C@H](CO)c1ccccc1)N1CC2=C(C1)CN(S(=O)(=O)c1cnc3c(c1)OCCO3)C2 (single isomer, unassigned) [Compound 1]
preclinical evidence of arrhythmia risk, mutagenicity, nonspecific binding [1]: has not demonstrated any preclinical evidence of arrhythmia risk, mutagenicity, or nonspecific binding activity
patients with >1 g/dL increase in hemoglobin ([2]; SCD MAD1, 300 mg once daily 14 days): 6/7
median Hb increase over baseline ([2]; SCD MAD1, 300 mg once daily 14 days (n = 7), range 0, 2.3): 1.2 g/dL
patients with a decrease in reticulocytes [2, 3]: 7 and 7/7
patients with a decrease in total bilirubin [2, 3]: 7
median LDH decrease over baseline ([2]; SCD MAD1, 300 mg once daily 14 days, range +18%, −57%): 36%
median bilirubin decrease over baseline ([2]; SCD MAD1, 300 mg once daily 14 days, range −7%, −63%): 35%
median reticulocyte decrease over baseline ([2]; SCD MAD1, 300 mg once daily 14 days, range −39%, −81%): 60%
increase in Hb compared with pre-dose on day 1 ([2]; one SCD patient, 300 mg once daily, sustained through day 21, no hydroxyurea): > 2 g/dL
mean percentage change in ATP blood levels (ATP blood levels; SCD 300 mg QD, Day 1, 0 h after first daily dose): 0%
mean percentage change in ATP blood levels (ATP blood levels; SCD 300 mg QD, Day 1, 24 h after first daily dose): 14%
mean percentage change in ATP blood levels (ATP blood levels; SCD 300 mg QD, Day 14, 0 h after first daily dose): 47%
mean percentage change in ATP blood levels (ATP blood levels; SCD 300 mg QD, Day 14, 6 h after first daily dose): 44%
mean percentage change in ATP blood levels (ATP blood levels; SCD 300 mg QD, Day 14, 24 h after first daily dose): 45%
mean percentage change in ATP blood levels (ATP blood levels; SCD 300 mg QD, Day 14, 48 h after first daily dose): 35%
mean percentage change in ATP blood levels (ATP blood levels; SCD single 700 mg, 0 h after dose): 0%
mean percentage change in ATP blood levels (ATP blood levels; SCD single 700 mg, 6 h after dose): 14%
mean percentage change in ATP blood levels (ATP blood levels; SCD single 700 mg, 24 h after dose): 30%
mean percentage change in ATP blood levels (ATP blood levels; SCD single 700 mg, 48 h after dose): 30%
mean percentage change in ATP blood levels (ATP blood levels; SCD single 700 mg, 72 h after dose): 32%
lag of maximum increase in blood ATP behind maximum plasma concentration (ATP blood levels; SCD single 700 mg, FIG. 54A): at least 24 hours
increase in ATP blood concentrations (ATP blood levels; SCD, 24 hours after single 700-mg dose, FIG. 46A): 30%
